# In patent US10011586B2, “Heterocyclic compound, method for preparing the same, and pharmaceutical composition comprising the same” (Daewoong Pharmaceutical Co., Ltd., priority 2015, dated 2018):
# Like-named read-outs stand apart in the source and are kept apart here.
# Experiments:
# NCI-H460 cells = assay: Cancer cell growth inhibition experiment (MTT assay); type: cell-based; conditions: Homo sapiens, lung cancer cell line, compounds 48 hours, cell viability by MTT assay
# Description: NCl-H460 cells, lung cancer cell lines, were cultured in 5% CO2, 37° C. incubator using a flask for 75 cm^2 tissue culture. 96-well plates were used for the evaluation. These were prepared by differently applying at concentrations in the range of 6,000 to 12,000 cells/well according to the growth rate of the cell lines. The medium containing 5% FBS were dispensed in 200 μL/well and used. The medium were cultured for 24 hours. After confirming the cell status and dispensing form of a 96-well plate under a microscope, they were used for subsequent experiments. The compounds were evaluated at concentrations of 100, 30, 10, 3, 1, 0.3, 0.03, 0.01 μM. After removing the existing medium, the compounds with various concentrations were treated in an amount of 200 μL/well. The compounds-treated plates were further cultured for 48 hours, and the cell viabilities were measured by MTT assay to calculate IC50 values.
# % Inhibition and IC50 values of the respective compounds were calculated and analyzed using Sigma Plot 8.0. In Table 2, the results are divided into A, B and C according to the range of IC50. The case where the derived IC50 is 3 μM or less is represented by “A”, the case where the IC50 is 3 to 10 μM is represented by “B”, and the case where the IC50 is 10 μM or higher is represented by “C”.
# PRS enzyme = molecular target: T1, PRS enzyme (Homo sapiens, UniProt P07814); assay: PRS enzyme activity inhibition experiment; type: biochemical
# T1 construct: the portion corresponding to PRS in cDNA of EPRS was subcloned; made in house
# T1 sequence (P07814 1007-1512 limits assumed): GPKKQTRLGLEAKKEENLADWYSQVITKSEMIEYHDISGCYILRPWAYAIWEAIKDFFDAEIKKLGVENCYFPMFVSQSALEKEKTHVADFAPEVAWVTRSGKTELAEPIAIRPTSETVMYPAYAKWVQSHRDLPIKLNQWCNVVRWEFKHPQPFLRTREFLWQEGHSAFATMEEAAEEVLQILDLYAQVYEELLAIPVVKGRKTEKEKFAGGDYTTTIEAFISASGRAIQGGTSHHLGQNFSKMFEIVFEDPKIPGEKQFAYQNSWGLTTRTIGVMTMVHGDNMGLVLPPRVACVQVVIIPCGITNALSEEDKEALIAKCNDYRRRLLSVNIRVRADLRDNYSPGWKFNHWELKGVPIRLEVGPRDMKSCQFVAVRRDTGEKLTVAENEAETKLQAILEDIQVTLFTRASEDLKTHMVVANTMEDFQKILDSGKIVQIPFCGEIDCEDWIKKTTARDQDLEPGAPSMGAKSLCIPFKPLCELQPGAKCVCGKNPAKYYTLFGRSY
# Description: Specifically, the portion corresponding to PRS in cDNA of EPRS was subcloned, and the obtained high-purity PRS protein was purified and used in the experiment. The compounds (1 μM) prepared in Examples were added into the reaction buffer (20 mM KPO4 (pH 7.4), 6 mM MgAc, 5 mM ATP, […] tRNA, 0.5 mM DTT, […][^3H]proline (1 mCi/mL)) and allowed to react at 37° C. for 5 to 10 minutes. The reaction was terminated with 3M paper that was in advance dried by addition of 5% TCA. The radioactivity was measured using a liquid scintillation counter.
# % Inhibition and IC50 values of the respective compounds were calculated and analyzed using Microsoft Excel or Sigma Plot 8.0. In Table 1, the results are divided into A, B and C according to the range of IC50.
# [1] = purified PRS protein subcloned from EPRS cDNA, [3H]proline, 37° C., 5 to 10 minutes, liquid scintillation counter, read-out: PRS IC50
IC50 (NCI-H460 cells),IC50 (PRS enzyme; [1]),SMILES,IC50 (PRS enzyme)
≥ 10 µM,< 0.1 µM,"O=C(C[C@H]1NCCC[C@@H]1O)Cn1cnc2ccc(-c3cn[nH]c3)cc21 [Example 37, 1-(6-(1H-pyrazol-4-yl)-1H-benzo[d]imidazol-1-yl)-3-((2R,3S)-3-hydroxypiperidin-2-yl)propan-2-one]",–
≥ 10 µM,0.1 to 0.5 µM,"O=C(C[C@H]1NCCC[C@@H]1O)Cn1cnc2cccc(-c3cccc(Cl)c3)c21 [Example 50, 1-(7-(3-chlorophenyl)-1H-benzo[d]imidazol-1-yl)-3-((2R,3S)-3-hydroxypiperidin-2-yl)propan-2-one]",–
3 to 10 µM,< 0.1 µM,"COc1cc(Cl)cc(-c2ccc3ncn(CC(=O)C[C@H]4NCCC[C@@H]4O)c3c2)c1 [Example 35, 1-(6-(3-chloro-5-methoxyphenyl)-1H-benzo[d]imidazol-1-yl)-3-((2R,3S)-3-hydroxypiperidin-2-yl)propan-2-one]",–
≤ 3 µM,< 0.1 µM,"O=C(C[C@H]1NCCC[C@@H]1O)Cn1cnc2ccc(-c3cccc(C(F)(F)F)c3)nc21 [Example 47, 1-((2R,3S)-3-hydroxypiperidin-2-yl)-3-(5-(3-(trifluoromethyl)phenyl)-3H-imidazo[4,5-b]pyridin-3-yl)propan-2-one]",–
≥ 10 µM,< 0.1 µM,"O=C(C[C@H]1NCCC[C@@H]1O)Cn1c(CO)nc2ccc(-c3ccc(F)cc3)cc21 [Example 60, 1-(6-(4-fluorophenyl)-2-(hydroxymethyl)-1H-benzo[d]imidazol-1-yl)-3-((2R,3S)-3-hydroxypiperidin-2-yl)propan-2-one]",–
–,> 0.5 µM,"O=C(C[C@H]1NCCC[C@@H]1O)Cn1cnc2cccc(-c3cccc(C(F)(F)F)c3)c21 [Example 53, 1-((2R,3S)-3-hydroxypiperidin-2-yl)-3-(7-(3-(trifluoromethyl)phenyl)-1H-benzo[d]imidazol-1-yl)propan-2-one]",–
–,0.1 to 0.5 µM,"O=C(C[C@H]1NCCC[C@@H]1O)Cn1cnc2ncc(-c3cccc(C(F)(F)F)c3)cc21 [Example 42, 1-((2R,3S)-3-hydroxypiperidin-2-yl)-3-(6-(3-(trifluoromethyl)phenyl)-1H-imidazo[4,5-b]pyridin-1-yl)propan-2-one]",–
–,> 0.5 µM,"O=C(C[C@H]1NCCC[C@@H]1O)Cn1cnc2cccc(-c3ccccc3C(F)(F)F)c21 [Example 52, 1-((2R,3S)-3-hydroxypiperidin-2-yl)-3-(7-(2-(trifluoromethyl)phenyl)-1H-benzo[d]imidazol-1-yl)propan-2-one]",–

# Further lines, the compound ahead of its results:
SMILES,IC50 (NCI-H460 cells),IC50 (PRS enzyme; [1]),IC50 (PRS enzyme)
"O=C(C[C@H]1NCCC[C@@H]1O)Cn1cnc2ccc(-c3cccc(F)c3)cc21 [Example 25, 1-(6-(3-fluorophenyl)-1H-benzo[d]imidazol-1-yl)-3-((2R,3S)-3-hydroxypiperidin-2-yl)propan-2-one]",≤ 3 µM,< 0.1 µM,–
"Cc1c(-c2cccc(F)c2)ccc2c1ncn2CC(=O)C[C@H]1NCCC[C@@H]1O [Example 16, 1-(5-(3-fluorophenyl)-4-methyl-1H-benzo[d]imidazol-1-yl)-3-((2R,3S)-3-hydroxypiperidin-2-yl)propan-2-one]",≥ 10 µM,0.1 to 0.5 µM,–
"O=C(C[C@H]1NCCC[C@@H]1O)Cn1c(CO)nc2cc(-c3ccccc3)ccc21 [Example 55, 1-(2-(hydroxymethyl)-5-phenyl-1H-benzo[d]imidazol-1-yl)-3-((2R,3S)-3-hydroxypiperidin-2-yl)propan-2-one]",–,–,> 0.5 µM
"O=C(C[C@H]1NCCC[C@@H]1O)Cn1cnc2ccc(-c3ccccc3Cl)cc21 [Example 26, 1-(6-(2-chlorophenyl)-1H-benzo[d]imidazol-1-yl)-3-((2R,3S)-3-hydroxypiperidin-2-yl)propan-2-one]",3 to 10 µM,< 0.1 µM,–
"O=C(C[C@H]1NCCC[C@@H]1O)Cn1cnc2ccc(-c3ccccc3)cc21 [Example 24, 1-((2R,3S)-3-hydroxypiperidin-2-yl)-3-(6-phenyl-1H-benzo[d]imidazol-1-yl)propan-2-one]",3 to 10 µM,< 0.1 µM,–
"O=C(C[C@H]1NCCC[C@@H]1O)Cn1cnc2nc(-c3cccc(Cl)c3)ccc21 [Example 12, 1-(5-(3-chlorophenyl)-1H-imidazo[4,5-b]pyridin-1-yl)-3-((2R,3S)-3-hydroxypiperidin-2-yl)propan-2-one]",–,> 0.5 µM,–
"O=C(C[C@H]1NCCC[C@@H]1O)Cn1cnc2c(-c3cccc(Cl)c3)nccc21 [Example 3, 1-(4-(3-chlorophenyl)-1H-imidazo[4,5-c]pyridin-1-yl)-3-((2R,3S)-3-hydroxypiperidin-2-yl)propan-2-one]",–,> 0.5 µM,–
"O=C(C[C@H]1NCCC[C@@H]1O)Cn1cnc2nc(-c3cccc(C(F)(F)F)c3)ccc21 [Example 13, 1-((2R,3S)-3-hydroxypiperidin-2-yl)-3-(5-(3-(trifluoromethyl)phenyl)-1H-imidazo[4,5-b]pyridin-1-yl)propan-2-one]",–,> 0.5 µM,–
"O=C(C[C@H]1NCCC[C@@H]1O)Cn1cnc2nc(-c3ccccc3F)ccc21 [Example 9, 1-(5-(2-fluorophenyl)-1H-imidazo[4,5-b]pyridin-1-yl)-3-((2R,3S)-3-hydroxypiperidin-2-yl)propan-2-one]",–,> 0.5 µM,–
"O=C(C[C@H]1NCCC[C@@H]1O)Cn1cnc2nc(-c3ccc(F)cc3)ccc21 [Example 11, 1-(5-(4-fluorophenyl)-1H-imidazo[4,5-b]pyridin-1-yl)-3-((2R,3S)-3-hydroxypiperidin-2-yl)propan-2-one]",–,> 0.5 µM,–
"O=C(C[C@H]1NCCC[C@@H]1O)Cn1cnc2c(-c3cccc(C(F)(F)F)c3)nccc21 [Example 4, 1-((2R,3S)-3-hydroxypiperidin-2-yl)-3-(4-(3-(trifluoromethyl)phenyl)-1H-imidazo[4,5-c]pyridin-1-yl)propan-2-one]",–,> 0.5 µM,–
"O=C(C[C@H]1NCCC[C@@H]1O)Cn1cnc2c(-c3cccc(F)c3)nccc21 [Example 2, 1-(4-(3-fluorophenyl)-1H-imidazo[4,5-c]pyridin-1-yl)-3-((2R,3S)-3-hydroxypiperidin-2-yl)propan-2-one]",–,> 0.5 µM,–
"O=C(C[C@H]1NCCC[C@@H]1O)Cn1cnc2c(N3CCCC3)nccc21 [Example 7, 1-((2R,3S)-3-hydroxypiperidin-2-yl)-3-(4-(pyrrolidin-1-yl)-1H-imidazo[4,5-c]pyridin-1-yl)propan-2-one]",≥ 10 µM,–,–
"O=C(C[C@H]1NCCC[C@@H]1O)Cn1cnc2c(-c3cc(Cl)cc(Cl)c3)nccc21 [Example 6, 1-(4-(3,5-dichlorophenyl)-1H-imidazo[4,5-c]pyridin-1-yl)-3-((2R,3S)-3-hydroxypiperidin-2-yl)propan-2-one]",–,> 0.5 µM,–
"O=C(C[C@H]1NCCC[C@@H]1O)Cn1cnc2cc(-c3cccc(C(F)(F)F)c3)cnc21 [Example 15, 1-((2R,3S)-3-hydroxypiperidin-2-yl)-3-(6-(3-(trifluoromethyl)phenyl)-3H-imidazo[4,5-b]pyridin-3-yl)propan-2-one]",–,> 0.5 µM,–
"O=C(C[C@H]1NCCC[C@@H]1O)Cn1cnc2nc(-c3cccc(F)c3)ccc21 [Example 10, 1-(5-(3-fluorophenyl)-1H-imidazo[4,5-b]pyridin-1-yl)-3-((2R,3S)-3-hydroxypiperidin-2-yl)propan-2-one]",–,> 0.5 µM,–
"O=C(C[C@H]1NCCC[C@@H]1O)Cn1cnc2c(-c3cc(F)cc(Cl)c3)nccc21 [Example 5, 1-(4-(3-chloro-5-fluorophenyl)-1H-imidazo[4,5-c]pyridin-1-yl)-3-((2R,3S)-3-hydroxypiperidin-2-yl)propan-2-one]",–,> 0.5 µM,–
